Columns and labels:
[1] = tested on: mPTP; experiment: mPTP activity (Ca2+ retention) assay in isolated rat liver mitochondria; format: biochemical; conditions: examples tested by different contract research organisations, believed comparable
Method in brief: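 pIC50 was taken from Fluo5N fluorescence at 10 min after a 75 μM CaCl2 bolus, scaled between DMSO (0%) and 5 μM cyclosporin A (100%). Compounds, ten half-log concentrations from 30 μM to 1 nM final, sat 10 min at RT with fresh female Sprague Dawley rat liver mitochondria energized by succinate plus rotenone.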

[2] = tested on: mPTP; experiment: mPTP activity assay in isolated rat brain mitochondria; format: biochemical; conditions: fluorescence at 10 min timepoint
Protocol: MPTP activity was measured in brain mitochondria freshly isolated from female Sprague Dawley (250 to 300 gram) rats. Anaesthetised rats were perfused in-situ with −40 ml cold Dulbecco's Phosphate Buffered Saline (DPBS), then brains dissected and transferred into 30 ml Isolation Buffer (225 mM mannitol, 75 mM sucrose, 1 mM EGTA, adjusted to pH 7.4 with 1M NaOH). The brain was minced using tweezers and a scalpel into −5 mm pieces then transferred into a 50 ml Potterton Dounce homogenization tube on ice containing 10 ml ice-cold isolation buffer (as above with addition of Complete Protease inhibitor; 1 tablet per 50 ml buffer). Homogenisation was carried out using a teflon pestle at 1800 rpm. The slurry was centrifuged at 2000 g for 10 min at 4° C., then the supernatant centrifuged at 12,000 g for 9 min. The pellet was resuspended with a dounce homogeniser in isolation buffer as above but with the addition of 0.02% digitonin, centrifuged at 12,000 g for 11 min and finally resuspended in 5 ml modified isolation buffer (as above but with EGTA reduced to 0.1 mM).
Test compounds were prepared in 384 well polypropylene assay plates as described above for the liver mitochondria assay. A stock mitochondria/Fluo5N assay solution was prepared in 5.6 ml assay buffer (120 mM mannitol, 40 mM MOPS, 5 mM KH2PO4, 60 mM KCl, 10 mM pyruvate, 2 mM malate, 2 mM MgCl2, 20 μM ADP, 1.26 μM oligomycin A, adjusted to pH 7.4) supplemented with Fluo5N pentapotassium salt (2 μM) and 1 ml mitochondria suspension, then transferred (15 μl) into the assay plate containing test compounds and incubated for 10 min at RT. Assay plates were then transferred to a FLIPR Tetra plate reader (Molecular Devices). Dye fluorescence was then measured every 3 sec for a total of 10 min.

SMILES	mPTP Rat liver pIC50 [1]	mPTP Rat brain pIC50 [2]
CC(NC(=O)c1nn(C)c(=O)[nH]1)C1(Cc2ccccc2)CCC1 (single isomer, unassigned) [Example 24A, N-(1-(1-benzylcyclobutyl)ethyl)-1-methyl-5-oxo-4,5-dihydro-1H-1,2,4-triazole-3-carboxamide]	6.75	7.83
CC(NC(=O)c1nn(C)c(=O)[nH]1)C1(Cc2ccccc2)CCC1 (single isomer, unassigned) [Example 24B, N-(1-(1-benzylcyclobutyl)ethyl)-1-methyl-5-oxo-4,5-dihydro-1H-1,2,4-triazole-3-carboxamide]	<4.52	5.49
CC(NC(=O)c1nn(C)c(=O)[nH]1)C(C)(C)Cc1ccccc1 (single isomer, unassigned) [Example 39B, N-(3,3-dimethyl-4-phenylbutan-2-yl)-1-methyl-5-oxo-4,5-dihydro-1H-1,2,4-triazole-3-carboxamide]	6.56	7.62
CC(C)[C@H](CNC(=O)c1nn(C)c(=O)[nH]1)Cc1ccccc1 (single isomer, unassigned) [Example 46B]	6.97	7.68
CC[C@@H](CNC(=O)c1nn(C)c(=O)[nH]1)Cc1ccccc1 (single isomer, unassigned) [Example 54a]	5.04	5.68
CC[C@H](CNC(=O)c1nn(C)c(=O)[nH]1)Cc1ccccc1 (single isomer, unassigned) [Example 54b]	6.82	7.94
CC[C@@H](Cc1ccc(F)cc1F)C(C)NC(=O)c1nn(C)c(=O)[nH]1 (single isomer, unassigned) [Example 223]	6.90	7.60
CC[C@@H](Cc1ccc(F)cc1F)C(C)NC(=O)c1nn(C)c(=O)[nH]1 (single isomer, unassigned) [Example 224]	4.52	5.04
CC(c1ccc(F)cc1F)[C@@H](CNC(=O)c1nccc(=O)[nH]1)C1CC1 (single isomer, unassigned) [Example 225]	5.47	6.66
CC(c1ccc(F)cc1F)[C@@H](CNC(=O)c1nccc(=O)[nH]1)C1CC1 (single isomer, unassigned) [Example 226]	4.52	4.82
Cn1nc(C(=O)NCC(C)(Cc2c(F)cc(F)cc2F)C2CC2)[nH]c1=O (single isomer, unassigned) [Example 227, N-[2-cyclopropyl-2-methyl-3-(2,4,6-trifluorophenyl)propyl]-1-methyl-5-oxo-4H-1,2,4-triazole-3-carboxamide]	6.21	7.76
Cn1nc(C(=O)NCC(C)(Cc2c(F)cc(F)cc2F)C2CC2)[nH]c1=O (single isomer, unassigned) [Example 228, N-[2-cyclopropyl-2-methyl-3-(2,4,6-trifluorophenyl)propyl]-1-methyl-5-oxo-4H-1,2,4-triazole-3-carboxamide]	6.16	7.12
Cn1nc(C(=O)NCC2(Cc3ccc(F)cc3F)CCCO2)[nH]c1=O (single isomer, unassigned) [Example 229]	6.32	6.83
O=C(NCC1(Cc2ccc(F)cc2F)CCC1)c1cncc(=O)[nH]1 [Example 16, N-((1-(2,4-difluorobenzyl)cyclobutyl)methyl)-6-oxo-1,6-dihydropyrazine-2-carboxamide]		7.35
Cn1nc(C(=O)NCC(Cc2ccc(Cl)cc2F)C2CC2)[nH]c1=O (centres unmarked) [Example 222]	6.11	
Cn1nc(C(=O)NCC2Cc3ccccc3O2)[nH]c1=O (centres unmarked) [Reference Example 114, N-((2,3-dihydrobenzofuran-2-yl)methyl)-1-methyl-5-oxo-4,5-dihydro-1H-1,2,4-triazole-3-carboxamide]	<4.57	
